Experiments:
awake rats = test: Telemetry studies of heart rate in awake rats; format: in vivo, Rats (Sprague Dawley)
Experimental: Rats (Sprague Dawley) weighing 300–400 gms were purchased from Simonsen laboratories. CVT-3619 was dissolved in DMSO and further diluted in saline. CVT-510 was dissolved in saline. Ketamine was purchased from Fort Dodge Animal Health, Xylazine from Bayer and Acepromazine Maleate from Fermenta Animal Health Co. Metoprolol and propranolol were purchased from SIGMA. Esmolol was obtained from a local pharmacy.
For these studies, rats were instrumented with radiotelemetered transmitters (Data Sciences) at least 3 weeks prior to experimentation. Animals were anesthetized by peritoneal injection of a “cocktail” (1 ml/kg) containing Ketamine (75 mg/ml), Xylazine (5 mg/ml), and Acepromazine (1 mg/ml). After 20–30 minutes of induction of anesthesia, a midline laparotomy was performed. The transmitter for recordings of ECG, blood pressure and body temperature was placed in the abdominal cavity, and secured to the abdominal muscles. Two electrocardiographic leads were tunneled through the subcutaneous—one toward the upper left shoulder and the other to the right thigh, and secured with sutures. A fluid filled sensor catheter was inserted in the descending aorta above the iliac bifurcation for measurement of blood pressure. The tip of the telemetry catheter was located in the abdominal aorta just caudal to the renal arteries. Once the transmitter and leads were in place and determined to be functioning properly, the abdominal wall was sutured. After recovery from anesthesia, the rats were housed individually in cages placed on their respective receivers. The ECG, blood pressure and temperature were recorded and heart rate measured by a Dataquest ART Gold system (Version 2.2; Data Sciences Intl). The system consisted of a transmitter, i.e., biopotential sensor (Model TL11M2-C50-PXT), receivers (Model RPC-1), a consolidation matrix (BCM 100), a personal computer (Compaq DeskPro Series 3574) and Dataquest 4 software. Heart rate, blood pressure and temperature were measured at 5-minute intervals. Each recording lasted 10 seconds and all cardiac cycles within this period were averaged. Animals were given various drugs in a randomized manner after recording the baseline data for at least two hours.
A subgroup of animals was implanted with osmotic pumps containing CVT-510 for combination experiments. […]
The slowing of heart rate caused by each treatment was quantified by determining the area under the curve (AUC), using the trapezoidal method for calculations. Data used for analysis was the area under/over the curve calculated using change form baseline data (untreated animals). The data was analyzed for the magnitude as well as the duration of bradycardia caused by each treatment. […]

anesthetized guinea pigs = test: PR interval (AV nodal conduction) in anesthetized, paced guinea pigs; format: in vivo; conditions: metoprolol 0.1 mg/kg iv bolus
From the text: Male guinea pigs weighing 400–450 gm were obtained from Simonsen labs and housed in the institutional laboratory animal facility. Animals were anesthetized with isoflurane in the anesthetizing chamber. After determining (by toe pinch) that the animal is adequately anesthetized, the animals was intubated with an endotracheal tube and ventilated with isoflurane and oxygen mixture using anesthesia workstation. Using sterile equipment and aseptic technique, the right carotid artery was exposed and a catheter inserted for recording of blood pressure (BP). A quadripolar electrode catheter was introduced via the right jugular vein and positioned in the right atrium and ventricle for atrial and ventricular pacing. The hearts were paced at a constant rate (330–360 bpm) to eliminate the effect of heart rate variability between animals. Another catheter was inserted into the left jugular vein and positioned in the right atrium for the administration of drugs and saline. Subcutaneous needles were used as standard electrocardiographic leads to record the electrocardiogram (ECG). After completion of surgery and instrumentation, a 20 min equilibration period was allowed before beginning the experimental protocol. […] When the two agents were given in combination the PR interval was increased up to 15 msec. […] Esmolol was administered at three different infusion rates. […]

[1] = cited from earlier work

COC(=O)CCc1ccc(OCC(O)CNC(C)C)cc1 (stereo not shown) [esmolol, reference compound]
effect on heart rate (FIG. 3) (awake rats; esmolol 10 mg/kg ip alone, heart rate increase caused by handling): only slightly reduces the increase in heart rate

COCCc1ccc(OCC(O)CNC(C)C)cc1 (stereo not shown) [metoprolol, reference compound]
increase of PR interval (FIG. 9) (anesthetized guinea pigs): 5 ms

O[C@@H]1[C@@H](CSc2ccccc2F)OC(n2cnc3c(N[C@@H]4CCC[C@H]4O)ncnc32)[C@@H]1O (stereo partly drawn) [CVT-3619, 2-{6-[((1R,2R)-2-hydroxycyclopentyl)amino]purin-9-yl}(4S,5S,3R)-5-[(2-fluorophenylthio)methyl]oxolane-3,4-diol]
effect on heart rate (FIG. 1) (awake rats; CVT-3619 0.5 mg/kg ip alone): minimal effect on heart rate

Nc1ncnc2c1ncn2[C@@H]1O[C@H](CO)[C@@H](O)[C@H]1O [Adenosine]
half-life [1]: ~10 s

— patent publication US7005425B2, “Method for treating arrhythmias” (CV Therapeutics, Inc., priority 2002, dated 2006)
